The test system of experiment [1] is MCF7 cells. The experiment can be described thus: Cell proliferation assay MCF7. Format: cell-based. As to conditions: MCF7 human breast cancer cells; 120 hours; ATPlite 1 Step. As to the method:
MCF7 cells were seeded in multi well plates at a density optimized to give approximately 90% confluent cells at the time of harvest. Cells were incubated for 24 hours before addition of compound. Compounds were diluted in complete medium and added to the plates in duplicates. The final concentration of DMSO was maximum 0.5%. Complete medium used was DMEM with GlutaMAX containing 10% FBS and pen/strep.
120 hours after addition of compounds, the plates were harvested and analyzed by ATPlite 1 Step (Perkin Elmer, cat no 6016739) according to the manufactures recommendation.

Experiment [2] deals with T1, KDM5B (PLU-1) (Homo sapiens, UniProt Q9UGL1).
T1 sequence (Q9UGL1 1-809): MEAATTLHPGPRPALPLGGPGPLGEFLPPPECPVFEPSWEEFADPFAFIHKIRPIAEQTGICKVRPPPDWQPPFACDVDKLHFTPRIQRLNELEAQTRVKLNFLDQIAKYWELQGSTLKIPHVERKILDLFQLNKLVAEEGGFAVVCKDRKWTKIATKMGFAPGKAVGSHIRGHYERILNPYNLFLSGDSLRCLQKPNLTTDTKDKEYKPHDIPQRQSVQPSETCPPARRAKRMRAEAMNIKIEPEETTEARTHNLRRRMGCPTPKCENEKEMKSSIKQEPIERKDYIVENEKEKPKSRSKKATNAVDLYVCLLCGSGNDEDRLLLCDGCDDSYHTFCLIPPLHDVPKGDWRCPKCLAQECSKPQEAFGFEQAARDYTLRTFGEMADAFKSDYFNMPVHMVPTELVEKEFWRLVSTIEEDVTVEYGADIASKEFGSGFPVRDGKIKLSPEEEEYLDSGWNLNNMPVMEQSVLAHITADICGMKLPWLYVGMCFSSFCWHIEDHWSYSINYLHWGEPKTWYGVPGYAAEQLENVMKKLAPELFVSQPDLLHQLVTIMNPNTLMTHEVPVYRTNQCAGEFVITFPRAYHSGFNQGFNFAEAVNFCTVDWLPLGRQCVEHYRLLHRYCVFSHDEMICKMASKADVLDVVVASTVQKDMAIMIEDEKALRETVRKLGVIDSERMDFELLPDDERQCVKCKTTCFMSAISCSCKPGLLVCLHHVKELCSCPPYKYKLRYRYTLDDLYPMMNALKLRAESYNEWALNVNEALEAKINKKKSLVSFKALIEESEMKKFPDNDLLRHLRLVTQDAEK
As to the kind of experiment: Histone lysine demethylase AlphaLISA assay, KDM5B. Format: biochemical. As to the method:
(§1) Assays are performed analogously to the protocol described by PerkinElmer (Roy et al. PerkinElmer Technical Note: AlphaLISA #12, April 2011)
(§2) Enzymes are dissolved in enzyme buffer and incubated for 10 min before being added to 3% DMSO solutions of compounds in enzyme buffer. Incubated for another 10 minutes, before substrate solution is added and the reaction mixture is incubated at room temperature. 10 μL acceptor beads, suspended in Epigenetic Buffer (Perkin Elmer AL008) from stock, are added and the suspension is incubated in the dark at room temperature, before a suspension of streptavidin donor beads (Perkin Elmer 6760002) in Epigenetic Buffer is added. After incubation at room temperature in the dark the plates are read. […]
H3K4M3B: H-ART(Kme3)QTARKSTGGKAPRKQLA-NH-Biotin (Caslo, Denmark) […]
(§3) Substrate Solution: Substrate, 25 μM L-Asc, and 10 μM α-KG in Buffer A.

The target of experiment [3] is KDM6A (UTX) (Homo sapiens, UniProt O15550). As to the kind of experiment: Histone lysine demethylase AlphaLISA assay, KDM6A. Type of experiment: biochemical. As for the experimental part: as §1, §2
BK27M3: Biotin-ATKAAR(Kme3)SAPATGGVKKPHRY-NH2? (Caslo, Denmark) […]
as §3

For experiment [4], the target named is T2, KDM4C (JMJD2C) (Homo sapiens, UniProt Q9H3R0).
T2 sequence (Q9H3R0 1-349): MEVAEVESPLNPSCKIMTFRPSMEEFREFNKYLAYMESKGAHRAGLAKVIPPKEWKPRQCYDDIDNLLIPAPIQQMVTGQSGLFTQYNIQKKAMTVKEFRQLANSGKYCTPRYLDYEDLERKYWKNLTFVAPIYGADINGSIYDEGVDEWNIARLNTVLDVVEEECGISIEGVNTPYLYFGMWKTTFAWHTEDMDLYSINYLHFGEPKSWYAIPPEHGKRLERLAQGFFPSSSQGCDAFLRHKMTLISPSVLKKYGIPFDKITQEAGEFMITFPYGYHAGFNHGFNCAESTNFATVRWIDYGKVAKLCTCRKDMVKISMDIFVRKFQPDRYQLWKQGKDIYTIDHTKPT
As to the kind of experiment: Histone lysine demethylase AlphaLISA assay, KDM4C. Type of experiment: biochemical. As to the method: as §1
Enzymes are dissolved in enzyme buffer and incubated for 10 min before being added to 3% DMSO solutions of compounds in enzyme buffer. Incubated for another 10 minutes, before substrate solution is added and the reaction mixture is incubated at room temperature. 10 μL acceptor beads, suspended in Epigenetic Buffer (Perkin Elmer AL008) from stock, are added and the suspension is incubated in the dark at room temperature, before a suspension of streptavidin donor beads (Perkin Elmer 6760002) in Epigenetic Buffer is added. After incubation at room temperature in the dark the plates are read.
BK9M3: Biotin-ARTKQTAR(KMe3)STGGKAPRKQ-NH2 (Caslo, Denmark) […]
as §3

In experiment [5] the target is T3, KDM2B (FBXL10) (Homo sapiens, UniProt Q8NHM5).
T3 sequence (Q8NHM5 1-650): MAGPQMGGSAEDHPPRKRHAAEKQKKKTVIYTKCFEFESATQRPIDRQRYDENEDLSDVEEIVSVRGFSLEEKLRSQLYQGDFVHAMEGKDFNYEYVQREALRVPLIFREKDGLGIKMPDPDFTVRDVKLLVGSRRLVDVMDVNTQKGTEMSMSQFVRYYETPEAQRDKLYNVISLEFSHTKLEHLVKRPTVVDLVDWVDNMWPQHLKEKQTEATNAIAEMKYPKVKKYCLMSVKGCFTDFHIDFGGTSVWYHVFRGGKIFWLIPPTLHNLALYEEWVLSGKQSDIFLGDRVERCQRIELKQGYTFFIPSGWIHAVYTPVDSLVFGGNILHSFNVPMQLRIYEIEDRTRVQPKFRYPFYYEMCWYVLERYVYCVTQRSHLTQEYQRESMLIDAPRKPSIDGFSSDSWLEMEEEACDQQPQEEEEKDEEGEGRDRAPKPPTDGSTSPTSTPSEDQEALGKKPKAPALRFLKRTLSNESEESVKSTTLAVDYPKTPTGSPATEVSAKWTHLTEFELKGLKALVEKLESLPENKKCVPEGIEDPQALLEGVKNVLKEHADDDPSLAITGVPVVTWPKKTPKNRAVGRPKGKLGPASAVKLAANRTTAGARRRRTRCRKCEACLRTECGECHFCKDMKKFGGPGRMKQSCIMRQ
As to the kind of experiment: Histone lysine demethylase AlphaLISA assay, KDM2B. Format: biochemical. As to conditions: read-out: KDM2B HDME Inhibition IC50. As for the experimental part:
as §1, §2
BH3K36M2: RKAAPATGGVK(Me2)KPHRYRPGTVK-(BIOTIN)? (Anaspec)
as §3

Where [6] appears, read: read-out: KDM5B HDME Inhibition IC50.
[7] abbreviates: read-out: KDM6A HDME Inhibition IC50.
Where [8] appears, read: read-out: KDM4C HDME Inhibition IC50.

Structures are written as SMILES. Where two headings read alike, the source gives them in different places.

Chain of KDM6A (UTX) (O15550 919-1401): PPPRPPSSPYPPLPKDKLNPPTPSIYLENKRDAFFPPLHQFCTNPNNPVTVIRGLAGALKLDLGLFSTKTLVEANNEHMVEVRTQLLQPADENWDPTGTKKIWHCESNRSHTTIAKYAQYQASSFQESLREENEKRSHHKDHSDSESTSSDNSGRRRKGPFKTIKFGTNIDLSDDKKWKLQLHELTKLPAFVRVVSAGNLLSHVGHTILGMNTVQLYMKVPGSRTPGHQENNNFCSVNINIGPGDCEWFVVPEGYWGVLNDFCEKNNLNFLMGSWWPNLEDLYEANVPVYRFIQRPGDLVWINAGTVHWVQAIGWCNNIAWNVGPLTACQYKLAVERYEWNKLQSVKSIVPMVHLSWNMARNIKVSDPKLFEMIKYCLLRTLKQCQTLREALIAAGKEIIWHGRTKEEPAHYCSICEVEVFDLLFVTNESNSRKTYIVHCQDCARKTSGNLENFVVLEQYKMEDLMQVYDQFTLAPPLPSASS

In experiment [1], `CCOC(=O)c1ccccc1OC(=O)NCc1ccnc(CNCC(=O)N(CC)CCN(C)C)c1` [Compound 29, ethyl 2-({[(2-{[({[2-(dimethylamino)-ethyl](ethyl)-carbamoyl}methyl)-amino]methyl}pyridin-4-yl)methyl]-carbamoyl}-oxy)benzoate] yielded a 50% effective concentration (EC50) of 0.25 to 2.5 µM. In addition, the results for the IC50 in experiment [2], in experiment [3] and in experiment [4] were 0.25 to 2.5 µM, > 2.5 µM and > 2.5 µM, respectively.
Molecule `CCN(CCN(C)C)C(=O)CNCc1cc(CNC(=O)C(F)(F)C(F)(F)C(F)(F)F)ccn1` [Compound 31, N-[(2-{[({[2-(dimethylamino)ethyl] (ethyl)carbamoyl}-methyl)amino]methyl}-pyridin-4-yl)-methyl]-2,2,3,3,4,4,4-heptafluorobutanamide] yielded an EC50 in experiment [1] of 0.25 to 2.5 µM. In addition, the IC50 in experiment [2] (setting [6]) is 0.25 to 2.5 µM; in experiment [5], > 2.5 µM; in experiment [3] (setting [7]), > 2.5 µM; in experiment [4] (setting [8]), > 2.5 µM.
`CCN(CC)C(=O)CNCc1cc(/C=N/CCc2ccc(C)cc2)ccn1` [Compound 69, N,N-diethyl-2-[({4-[{[2-(4-methylphenyl)-ethyl]imino}-methyl]pyridin-2-yl}methyl)amino]-acetamide]: the EC50 in experiment [1] was > 2.5 µM. The IC50 in experiment [2] (setting [6]) was < 0.25 µM; in experiment [3] (setting [7]), > 2.5 µM; in experiment [4] (setting [8]), 0.25 to 2.5 µM.
Take `CCN(CC)CCCCNCc1cc(/C=N/CCCO)ccn1` [Compound 71, 3-[{[2-({[4-(diethylamino)-butyl]amino}methyl)pyridin-4-yl]methylidene}amino]-propan-1-ol]: the EC50 in experiment [1] was < 0.25 µM. The IC50 in experiment [2] (setting [6]) is < 0.25 µM; in experiment [3] (setting [7]), > 2.5 µM; in experiment [4] (setting [8]), > 2.5 µM.
For the molecule `CCN(CC)CCCCNCc1cc(C2NCC3(CCCC3)CO2)ccn1` (centres unmarked) [Compound 72, [4-(diethylamino)-butyl][(4-{7-oxa-9-azaspiro[4.5]decan-8-yl}pyridin-2-yl)methyl]amine], the EC50 in experiment [1] is < 0.25 µM. The IC50 is 0.25 to 2.5 µM in experiment [2] (setting [6]), > 2.5 µM in experiment [5], > 2.5 µM in experiment [3] (setting [7]) and > 2.5 µM in experiment [4] (setting [8]).
As to `CCN(CC)CCCCNCc1cc(/C=N/C(C)CO)ccn1` (centres unmarked) [Compound 73, 2-[{[2-({[4-(diethylamino)-butyl]amino}-methyl)pyridin-4-yl]methylidene}-amino]propan-1-ol], in experiment [1], the EC50 was < 0.25 µM. Moreover, the IC50 in experiment [2] (setting [6]) was < 0.25 µM; in experiment [4] (setting [8]), > 2.5 µM.
As for `CCN(CC)CCCCNCc1cc(/C=N/C(CO)c2ccccc2)ccn1` (centres unmarked) [Compound 75, 2-[{[2-({[4-(diethylamino)-butyl]amino}-methyl)pyridin-4-yl]methylidene}-amino]-2-phenylethan-1-ol], the EC50 in experiment [1] was < 0.25 µM. Besides, the IC50 is < 0.25 µM in experiment [2] (setting [6]) and > 2.5 µM in experiment [4] (setting [8]).
Consider `CCN(CC)CCCCNCc1cc(/C=N/CC(C)(C)CO)ccn1` [Compound 76, 3-[{[2-({[4-(diethylamino)-butyl]amino}-methyl)pyridin-4-yl]methylidene}-amino]-2,2-dimethylpropan-1-ol], for which the EC50 in experiment [1] was < 0.25 µM. Further, the results for the IC50 in experiment [2] (setting [6]), in experiment [5] and in experiment [4] (setting [8]) were 0.25 to 2.5 µM, > 2.5 µM and > 2.5 µM, respectively.
`CCN(CCN(C)C)C(=O)CNCc1cc(/C=N/CCCO)ccn1` [Compound 78, N-[2-(dimethylamino)-ethyl]-N-ethyl-2-[({4-[[(3-hydroxypropyl)imino]-methyl]pyridin-2-yl}-methyl)amino]-acetamide]: in experiment [1], the EC50 is < 0.25 µM. Moreover, the IC50 in experiment [2] (setting [6]) is < 0.25 µM; in experiment [5], > 2.5 µM; in experiment [4] (setting [8]) it was 0.25 to 2.5 µM.
In experiment [1], `CCN(CC)CCCCNCc1cc(/C=N/CC(CO)Cc2ccccc2)ccn1` (centres unmarked) [Compound 80, 2-{[{[2-({[4-(diethylamino)-butyl]amino}methyl)pyridin-4-yl]methylidene}-amino]methyl}-3-phenylpropan-1-ol] showed an EC50 of 0.25 to 2.5 µM. Moreover, the IC50 in experiment [2] (setting [6]) was < 0.25 µM; in experiment [5], 0.25 to 2.5 µM; in experiment [3] (setting [7]) it was > 2.5 µM; in experiment [4] (setting [8]), < 0.25 µM.
For `CCN(CCN(C)C)C(=O)CNCc1cc(/C=N/CC(O)CN(C)C)ccn1` (centres unmarked) [Compound 86, 2-[({4-[{[3-(dimethylamino)-2-hydroxypropyl]imino}-methyl]pyridin-2-yl}methyl)amino]-N-[2-(dimethylamino)-ethyl]-N-ethylacetamide], the EC50 in experiment [1] is < 0.25 µM. For the same molecule, the concentration for half-maximal inhibition (IC50) in experiment [2] (setting [6]) is < 0.25 µM; in experiment [5], > 2.5 µM; in experiment [3] (setting [7]), > 2.5 µM.
On to `CCN(CCN(C)C)C(=O)CNCc1cc(C2NCC(C)(C)CO2)ccn1` (centres unmarked) [Compound 87, 2-({[4-(5,5-dimethyl-1,3-oxazinan-2-yl)pyridin-2-yl]methyl}amino)-N-[2-(dimethylamino)-ethyl]-N-ethylacetamide], for which the EC50 in experiment [1] is < 0.25 µM. Moreover, the IC50 was < 0.25 µM in experiment [2] (setting [6]), > 2.5 µM in experiment [5] and 0.25 to 2.5 µM in experiment [4] (setting [8]).
`CN(C)C1CCC(CNCc2cc(C=O)ccn2)C1` (centres unmarked) [Compound 117, 2-[({[3-(dimethylamino)-cyclopenyl]methyl}-amino)methyl] pyridine-4-carbaldehyde] came in with an EC50 in experiment [1] of 0.25 to 2.5 µM. The results for the half-maximal inhibitory concentration (IC50) in experiment [2] (setting [6]), in experiment [3] (setting [7]) and in experiment [4] (setting [8]) were < 0.25 µM, > 2.5 µM and 0.25 to 2.5 µM, respectively.

Source of the values: patent publication US9650339B2, “Inhibitors of histone demethylases” (Gilead Sciences, Inc., priority 2013, dated 2017).
